Tests used:
Assay type in all cases: functional
Helicoverpa armigera [1] = test: Resistance factor, ratio of LD50 for fourth-instar larval stage of pyrethroid-resistance Helicoverpa armigera laboratory strain GS-RR06 to LD50 for fourth-instar larval stage of pyrethroid-susceptible Helicoverpa armigera laboratory strain BK-77
Helicoverpa armigera [2] = test: Insecticidal activity against fourth-instar larval stage of pyrethroid-resistance Helicoverpa armigera laboratory strain GS-RR06 assessed as mortality applied topically onto thorax measured after 48 hr
Helicoverpa armigera [3] = test: Resistance factor, ratio of LD50 for fourth-instar larval stage of Helicoverpa armigera field strain Guider to LD50 for fourth-instar larval stage of pyrethroid-susceptible Helicoverpa armigera laboratory strain BK-77
Helicoverpa armigera [4] = test: Resistance factor, ratio of LD50 for fourth-instar larval stage of Helicoverpa armigera field strain Tchollire to LD50 for fourth-instar larval stage of pyrethroid-susceptible Helicoverpa armigera laboratory strain BK-77
Helicoverpa armigera [5] = test: Synergism factor, ratio of LD50 for fourth-instar larval stage of Helicoverpa armigera field strain Ngong to LD50 for fourth-instar larval stage of Helicoverpa armigera field strain Ngong in presence of 10 microg/larva cytochrome P450 monooxygenase inhibitor, PBO
Helicoverpa armigera [6] = test: Synergism factor, ratio of LD50 for fourth-instar larval stage of pyrethroid-resistance Helicoverpa armigera laboratory strain GS-RR06 to LD50 for fourth-instar larval stage of pyrethroid-resistance Helicoverpa armigera laboratory strain GS-RR06 in presence of 10 microg/larva cytochrome P450 monooxygenase inhibitor, PBO
Helicoverpa armigera [7] = test: Insecticidal activity against fourth-instar larval stage of pyrethroid-susceptible Helicoverpa armigera laboratory strain BK-77 assessed as mortality applied topically onto thorax measured after 48 hr
Helicoverpa armigera [8] = test: Insecticidal activity against fourth-instar larval stage of Helicoverpa armigera field strain Guider isolated from cotton plant assessed as mortality applied topically onto thorax 30 min after 10 microg/larva cytochrome P450 monooxygenase inhibitor, PBO application measured after 48 hr
Helicoverpa armigera [9] = test: Insecticidal activity against fourth-instar larval stage of Helicoverpa armigera field strain Ngong isolated from cotton plant assessed as mortality applied topically onto thorax measured after 48 hr
Helicoverpa armigera [10] = test: Synergism factor, ratio of LD50 for fourth-instar larval stage of Helicoverpa armigera field strain Gaschiga isolated form hyptis plant to LD50 for fourth-instar larval stage of Helicoverpa armigera field strain Gaschiga isolated from hyptis plant in presence of 10 microg/larva cytochrome P450 monooxygenase inhibitor, PBO
Helicoverpa armigera [11] = test: Resistance factor, ratio of LD50 for fourth-instar larval stage of Helicoverpa armigera field strain Home to LD50 for fourth-instar larval stage of pyrethroid-susceptible Helicoverpa armigera laboratory strain BK-77
Helicoverpa armigera [12] = test: Synergism factor, ratio of LD50 for fourth-instar larval stage of Helicoverpa armigera Foumbot to LD50 for fourth-instar larval stage of Helicoverpa armigera Foumbot in presence of 10 microg/larva cytochrome P450 monooxygenase inhibitor, PBO
Helicoverpa armigera [13] = test: Insecticidal activity against fourth-instar larval stage of Helicoverpa armigera field strain Mokong isolated from cotton plant assessed as mortality applied topically onto thorax measured after 48 hr
Helicoverpa armigera [14] = test: Insecticidal activity against fourth-instar larval stage of Helicoverpa armigera field strain Gaschiga isolated from hyptis plant assessed as mortality applied topically onto thorax 30 min after 10 microg/larva cytochrome P450 monooxygenase inhibitor, PBO application measured after 48 hr
Helicoverpa armigera [15] = test: Insecticidal activity against fourth-instar larval stage of Helicoverpa armigera field strain Guider isolated from cotton plant assessed as mortality applied topically onto thorax measured after 48 hr
Helicoverpa armigera [16] = test: Resistance factor, ratio of LD50 for fourth-instar larval stage of Helicoverpa armigera field strain Pitoa isolated from maize plant to LD50 for fourth-instar larval stage of pyrethroid-susceptible Helicoverpa armigera laboratory strain BK-77
Helicoverpa armigera [17] = test: Synergism factor, ratio of LD50 for Helicoverpa armigera field strain Guider to LD50 for fourth-instar larval stage of Helicoverpa armigera field strain Guider in presence of 10 microg/larva cytochrome P450 monooxygenase inhibitor, PBO
Helicoverpa armigera [18] = test: Insecticidal activity against fourth-instar larval stage of Helicoverpa armigera field strain Tchollire isolated from cotton plant assessed as mortality applied topically onto thorax measured after 48 hr
Helicoverpa armigera [19] = test: Resistance factor, ratio of LD50 for fourth-instar larval stage of Helicoverpa armigera field strain Mokong to LD50 for fourth-instar larval stage of pyrethroid-susceptible Helicoverpa armigera laboratory strain BK-77
Helicoverpa armigera [20] = test: Resistance factor, ratio of LD50 for fourth-instar larval stage of Helicoverpa armigera field strain Djalingo to LD50 for fourth-instar larval stage of pyrethroid-susceptible Helicoverpa armigera laboratory strain BK-77
Helicoverpa armigera [21] = test: Insecticidal activity against fourth-instar larval stage of Helicoverpa armigera field strain Gaschiga isolated from hyptis plant assessed as mortality applied topically onto thorax measured after 48 hr
Helicoverpa armigera [22] = test: Insecticidal activity against fourth-instar larval stage of Helicoverpa armigera Foumbot isolated from tomato plant assessed as mortality applied topically onto thorax 30 min after 10 microg/larva cytochrome P450 monooxygenase inhibitor, PBO application measured after 48 hr
Helicoverpa armigera [23] = test: Resistance factor, ratio of LD50 for fourth-instar larval stage of Helicoverpa armigera field strain Ngong to LD50 for fourth-instar larval stage of pyrethroid-susceptible Helicoverpa armigera laboratory strain BK-77
Helicoverpa armigera [24] = test: Resistance factor, ratio of LD50 for fourth-instar larval stage of Helicoverpa armigera Foumbot to LD50 for fourth-instar larval stage of pyrethroid-susceptible Helicoverpa armigera laboratory strain BK-77
Helicoverpa armigera [25] = test: Resistance factor, ratio of LD50 for fourth-instar larval stage of Helicoverpa armigera field strain Sorga to LD50 for fourth-instar larval stage of pyrethroid-susceptible Helicoverpa armigera laboratory strain BK-77
Helicoverpa armigera [26] = test: Insecticidal activity against fourth-instar larval stage of pyrethroid-resistance Helicoverpa armigera laboratory strain GS-RR06 assessed as mortality applied topically onto thorax 30 min after 10 microg/larva cytochrome P450 monooxygenase inhibitor, PBO application measured after 48 hr
Helicoverpa armigera [27] = test: Resistance factor, ratio of LD50 for fourth-instar larval stage of Helicoverpa armigera field strain Gaschiga isolated from hyptis plant to LD50 for fourth-instar larval stage of pyrethroid-susceptible Helicoverpa armigera laboratory strain BK-77
Helicoverpa armigera [28] = test: Insecticidal activity against fourth-instar larval stage of Helicoverpa armigera field strain Pitoa isolated from maize plant assessed as mortality applied topically onto thorax 30 min after 10 microg/larva cytochrome P450 monooxygenase inhibitor, PBO application measured after 48 hr
Helicoverpa armigera [29] = test: Synergism factor, ratio of LD50 for fourth-instar larval stage of Helicoverpa armigera field strain Home to LD50 for fourth-instar larval stage of Helicoverpa armigera field strain Home in presence of 10 microg/larva cytochrome P450 monooxygenase inhibitor, PBO
Helicoverpa armigera [30] = test: Synergism factor, ratio of LD50 for fourth-instar larval stage of Helicoverpa armigera field strain Pitoa isolated from maize plant to LD50 for fourth-instar larval stage of Helicoverpa armigera field strain Pitoa isolated from maize plant in presence of 10 microg/larva cytochrome P450 monooxygenase inhibitor, PBO
Helicoverpa armigera [31] = test: Insecticidal activity against fourth-instar larval stage of Helicoverpa armigera field strain Djalingo isolated from cotton plant assessed as mortality applied topically onto thorax measured after 48 hr
Helicoverpa armigera [32] = test: Resistance factor, ratio of LD50 for fourth-instar larval stage of pyrethroid-resistance Helicoverpa armigera laboratory strain GS-RR08 to LD50 for fourth-instar larval stage of pyrethroid-susceptible Helicoverpa armigera laboratory strain BK-77

## CC1(C)C(C=C(Cl)Cl)C1C(=O)OC(C#N)c1cccc(Oc2ccccc2)c1 (stereo not drawn) [ALPHA-CYPERMETHRIN]
Helicoverpa armigera [1]
  Ratio: 1529
Helicoverpa armigera [2]
  LD50: 718.4 microgAi/g
Helicoverpa armigera [3]
  Ratio: 67
Helicoverpa armigera [4]
  Ratio: 102
Helicoverpa armigera [5]
  Ratio: 37.5
Helicoverpa armigera [6]
  Ratio: 1.5
Helicoverpa armigera [7]
  LD50: 0.5 microgAi/g
Helicoverpa armigera [8]
  LD50: 8.8 microgAi/g
Helicoverpa armigera [9]
  LD50: 112.6 microgAi/g
Helicoverpa armigera [10]
  Ratio: 25
Helicoverpa armigera [11]
  Ratio: 93
Helicoverpa armigera [12]
  Ratio: 1.3
Helicoverpa armigera [13]
  LD50: 71.5 microgAi/g
Helicoverpa armigera [14]
  LD50: 1.8 microgAi/g
Helicoverpa armigera [15]
  LD50: 31.6 microgAi/g
Helicoverpa armigera [16]
  Ratio: 510
Helicoverpa armigera [17]
  Ratio: 3.6
Helicoverpa armigera [18]
  LD50: 48 microgAi/g
Helicoverpa armigera [19]
  Ratio: 152
Helicoverpa armigera [20]
  Ratio: 194
Helicoverpa armigera [21]
  LD50: 45 microgAi/g
Helicoverpa armigera [22]
  LD50: 63 microgAi/g
Helicoverpa armigera [23]
  Ratio: 240
Helicoverpa armigera [24]
  Ratio: 174
Helicoverpa armigera [25]
  Ratio: 123
Helicoverpa armigera [26]
  LD50: 480.3 microgAi/g
Helicoverpa armigera [27]
  Ratio: 96
Helicoverpa armigera [28]
  LD50: 28.9 microgAi/g
Helicoverpa armigera [29]
  Ratio: 2.1
Helicoverpa armigera [30]
  Ratio: 8.3
Helicoverpa armigera [31]
  LD50: 91.5 microgAi/g
Helicoverpa armigera [32]
  Ratio: 1771

Source: ChEMBL document CHEMBL3046004, “Esterase-mediated resistance to pyrethroids in field populations of Helicoverpa armigera (Lepidoptera: Noctuidae) from Central Africa” (2009)
